Results from patent US20050288347A1, “Certain triazole-based compounds, compositions, and uses thereof” (priority 2004, published 2005).
Entries after “also recorded” stand apart in the source; their conditions may differ.

What follows are compounds tested against protein kinase (assay: HTS ATP-utilizing enzyme assay, off-chip mobility-shift format (Caliper HTS 250)). Settings: kinase(s) for which the compound exhibits protein kinase inhibitory activity; test compound 10 μM; active = greater than three-sigma from the mean activity of inactive compounds.
Format: biochemical, human
In short: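 Kinase reactions ran 2.5 h at 20 to 22 °C with test compound at 10 μM, in a HEPES pH 7.5 master buffer containing Triton X-100 and BSA. Peptide substrate and phosphorylated product separated by mobility shift; inhibition normalized to DMSO (0%) and EDTA (100%) controls, with three-sigma thresholds for hits.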

SMILES	Kinase
N#CCSc1nnc(-c2ccc(O)cc2)n1Cc1ccccc1 [2-(4-benzyl-5-(4-hydroxyphenyl)-4H-1,2,4-triazol-3-ylthio)acetonitrile]	GSK3-β; also recorded: GSK3-α
CCn1c(SC(C)C(=O)Nc2ccccc2C)nnc1-c1ccc([N+](=O)[O-])cc1 (stereo not drawn) [2-(4-ethyl-5-(4-nitrophenyl)-4H-1,2,4-triazol-3-ylthio)-N-o-tolylpropanamide]	DAPK1
CCc1ccc(OCc2nnc(SCC#N)n2CC)cc1 [2-(4-ethyl-5-((4-ethylphenoxy)methyl)-4H-1,2,4-triazol-3-ylthio)acetonitrile]	AURORA-A
CCn1c(SCC(=O)c2ccccc2)nnc1-c1cccnc1 [2-(4-ethyl-5-(pyridin-3-yl)-4H-1,2,4-triazol-3-ylthio)-1-phenylethanone]	SYK
CCn1c(SCC(=O)Nc2ccccc2C)nnc1C(C)C [2-(4-ethyl-5-isopropyl-4H-1,2,4-triazol-3-ylthio)-N-o-tolylacetamide]	PDGFRR-α
CCn1c(SCC(=O)Nc2nccs2)nnc1-c1ccccc1 [2-(4-ethyl-5-phenyl-4H-1,2,4-triazol-3-ylthio)-N-(thiazol-2-yl)acetamide]	GSK3-β; also recorded: GSK3-α; also recorded: CHEK2
Cn1cnnc1SCC(=O)N1c2ccccc2Sc2ccccc21 [2-(4-methyl-4H-1,2,4-triazol-3-ylthio)-1-(10H-phenothiazin-10-yl)ethanone]	LCK
Cc1ccc(OCc2nnc(SCC#N)n2C)cc1 [2-(4-methyl-5-(p-tolyloxymethyl)-4H-1,2,4-triazol-3-ylthio)acetonitrile]	CSK
CC(Sc1nnc(COc2ccccc2)n1C)C(=O)O (stereo not drawn) [2-(4-methyl-5-(phenoxymethyl)-4H-1,2,4-triazol-3-ylthio)propanoic acid]	AURORA-A
N#CCSc1nnc(-c2cccnc2)n1-c1ccccc1 [2-(4-phenyl-5-(pyridin-3-yl)-4H-1,2,4-triazol-3-ylthio)acetonitrile]	AURORA-A
O=C(CSc1nnc[nH]1)c1ccc(O)cc1O [2-(4H-1,2,4-triazol-3-ylthio)-1-(2,4-dihydroxyphenyl)ethanone]	GSK3-α
CSCCc1nnc(SCC(=O)O)[nH]1 [2-(5-(2-(methylthio)ethyl)-4H-1,2,4-triazol-3-ylthio)acetic acid]	GSK3-α; also recorded: GSK3-β
CSCCc1nnc(SCC#N)[nH]1 [2-(5-(2-(methylthio)ethyl)-4H-1,2,4-triazol-3-ylthio)acetonitrile]	GSK3-α
O=C(O)CSc1nnc(-c2ccc(Cl)c(Cl)c2)[nH]1 [2-(5-(3,4-dichlorophenyl)-4H-1,2,4-triazol-3-ylthio)acetic acid]	GSK3-α; also recorded: GSK3-B β; also recorded: AURORA-A
NC(=O)CSc1nnc(-c2ccc(S(=O)(=O)N3CCCCC3)cc2)[nH]1 [2-(5-(4-(piperidin-1-ylsulfonyl)phenyl)-4H-1,2,4-triazol-3-ylthio)acetamide]	GSK3-β; also recorded: AURORA-A; also recorded: GSK3-α
O=C(O)CSc1nnc(-c2ccc(OC(F)(F)F)cc2)[nH]1 [2-(5-(4-(trifluoromethoxy)phenyl)-4H-1,2,4-triazol-3-ylthio)acetic acid]	GSK3-β; also recorded: GSK3-α; also recorded: DYRK2
N#CCSc1nnc(-c2ccc(OC(F)(F)F)cc2)[nH]1 [2-(5-(4-(trifluoromethoxy)phenyl)-4H-1,2,4-triazol-3-ylthio)acetonitrile]	DYRK2; also recorded: FLT-3; also recorded: AURORA-A
Cc1ccc(-n2c(SCC(=O)O)nnc2-c2ccc(Cl)cc2)cc1 [2-(5-(4-chlorophenyl)-4-p-tolyl-4H-1,2,4-triazol-3-ylthio)acetic acid]	DAPK1 and AKT1
N#CCSc1nnc(-c2ccc(F)cc2)[nH]1 [2-(5-(4-fluorophenyl)-4H-1,2,4-triazol-3-ylthio)acetonitrile]	FLT-3; also recorded: DYRK2; also recorded: GSK3-β
Cn1c(SCC#N)nnc1-c1ccc(O)cc1 [2-(5-(4-hydroxyphenyl)-4-methyl-4H-1,2,4-triazol-3-ylthio)acetonitrile]	GSK3-β; also recorded: GSK3-α; also recorded: DAPK1
NC(=O)CSc1nnc(-c2ccc(O)cc2)n1-c1ccccc1 [2-(5-(4-hydroxyphenyl)-4-phenyl-4H-1,2,4-triazol-3-ylthio)acetamide]	GSK3-β and GSK3-α and INSR
COc1ccc(-c2nnc(SCC#N)[nH]2)cc1 [2-(5-(4-methoxyphenyl)-4H-1,2,4-triazol-3-ylthio)acetonitrile]	FLT-3; also recorded: DYRK2; also recorded: AURORA-A
O=C(CSc1nnc(-c2ccc([N+](=O)[O-])cc2)[nH]1)c1ccccc1 [2-(5-(4-nitrophenyl)-4H-1,2,4-triazol-3-ylthio)-1-phenylethanone]	FLT-3; also recorded: GSK3-β; also recorded: AURORA-A
O=C(O)CSc1nnc(-c2ccc([N+](=O)[O-])cc2)[nH]1 [2-(5-(4-nitrophenyl)-4H-1,2,4-triazol-3-ylthio)acetic acid]	GSK3-α; also recorded: GSK3-β; also recorded: DYRK2
O=C(CSc1nnc(COc2ccc(Cl)cc2)[nH]1)c1ccccc1 [2-(5-((4-chlorophenoxy)methyl)-4H-1,2,4-triazol-3-ylthio)-1-phenylethanone]	GSK3-α; also recorded: FLT-3; also recorded: GSK3-β
O=C(O)CSc1nnc(COc2ccc(Cl)cc2)[nH]1 [2-(5-((4-chlorophenoxy)methyl)-4H-1,2,4-triazol-3-ylthio)acetic acid]	GSK3-B β; also recorded: GSK3-α

Further lines, results first:

Kinase	SMILES
AKT1	CCc1ccc(OCc2nnc(SCC(=O)O)n2Cc2ccccc2)cc1 [2-(4-benzyl-5-((4-ethylphenoxy)methyl)-4H-1,2,4-triazol-3-ylthio)acetic acid]
AURORA-A	N#CCSc1nnc(-c2cccnc2)n1Cc1ccccc1 [2-(4-benzyl-5-(pyridin-3-yl)-4H-1,2,4-triazol-3-ylthio)acetonitrile]
PKA and DAPK1	Cc1nnc(SC(C)C(=O)Nc2ccccc2)n1Cc1ccccc1 (stereo not drawn) [2-(4-benzyl-5-methyl-4H-1,2,4-triazol-3-ylthio)-N-phenylpropanamide]
LYNA	CCn1c(SC(C)C(=O)O)nnc1-c1cccnc1 (stereo not drawn) [2-(4-ethyl-5-(pyridin-3-yl)-4H-1,2,4-triazol-3-ylthio)propanoic acid]
PDGFRR-α and FYN	Cn1c(SCC(N)=O)nnc1-c1ccc([N+](=O)[O-])cc1 [2-(4-methyl-5-(4-nitrophenyl)-4H-1,2,4-triazol-3-ylthio)acetamide]
AURORA-A	Cc1cccc(OCc2nnc(SC(C)C(=O)O)n2C)c1 (stereo not drawn) [2-(4-methyl-5-(m-tolyloxymethyl)-4H-1,2,4-triazol-3-ylthio)propanoic acid]
PKA and MSK1 and AURORA-A	Cn1c(SCC(=O)c2ccccc2)nnc1-c1ccncc1 [2-(4-methyl-5-(pyridin-4-yl)-4H-1,2,4-triazol-3-ylthio)-1-phenylethanone]
AKT1	Cn1c(SCC(N)=O)nnc1-c1ccncc1 [2-(4-methyl-5-(pyridin-4-yl)-4H-1,2,4-triazol-3-ylthio)acetamide]
AURORA-A	Cc1ccc(OCc2nnc(SC(C)C(=O)O)n2-c2ccccc2)cc1 (stereo not drawn) [2-(4-phenyl-5-(p-tolyloxymethyl)-4H-1,2,4-triazol-3-ylthio)propanoic acid]
AURORA-A	CC(Sc1nnc(-c2cccnc2)n1-c1ccccc1)C(=O)O (stereo not drawn) [2-(4-phenyl-5-(pyridin-3-yl)-4H-1,2,4-triazol-3-ylthio)propanoic acid]
LCK	O=C(CSc1nnc[nH]1)N1c2ccccc2Sc2ccccc21 [2-(4H-1,2,4-triazol-3-ylthio)-1-(10H-phenothiazin-10-yl)ethanone]
FYN	COc1ccc(-c2nnc(SCC(=O)O)n2-c2ccccc2)cc1OC [2-(5-(3,4-dimethoxyphenyl)-4-phenyl-4H-1,2,4-triazol-3-ylthio)acetic acid]
GSK3-β; also recorded: MAPKAPK-2	Cn1c(SCC(=O)O)nnc1-c1ccc(O)cc1 [2-(5-(4-hydroxyphenyl)-4-methyl-4H-1,2,4-triazol-3-ylthio)acetic acid]
GSK3-β; also recorded: GSK3-α	O=C(O)CSc1nnc(-c2ccc(O)cc2)n1-c1ccccc1 [2-(5-(4-hydroxyphenyl)-4-phenyl-4H-1,2,4-triazol-3-ylthio)acetic acid]
PDK1	COc1ccc(-c2nnc(SCC(N)=O)n2-c2ccccc2)cc1 [2-(5-(4-methoxyphenyl)-4-phenyl-4H-1,2,4-triazol-3-ylthio)acetamide]
DAPK1	Cc1ccc(-n2c(SCC(=O)O)nnc2-c2ccc([N+](=O)[O-])cc2)cc1 [2-(5-(4-nitrophenyl)-4-p-tolyl-4H-1,2,4-triazol-3-ylthio)acetic acid]
PDGFRR-α and CDK1	CCn1c(CNc2ccc(C)cc2)nnc1SCC#N [2-(5-((p-toluidino)methyl)-4-ethyl-4H-1,2,4-triazol-3-ylthio)acetonitrile]
HCK and CHEK2	C=C(C)Cn1c(SCC(=O)O)nnc1-c1ccco1 [2-(5-(furan-2-yl)-4-(2-methylallyl)-4H-1,2,4-triazol-3-ylthio)acetic acid]

Same assay, conditions: test compound 10 μM; active = activity greater than three-sigma from the mean of the predominately inactive population for that enzyme

protein kinase against which the compound exhibits inhibitory activity (Table 3)	SMILES
AURORA-A	Oc1ccccc1-c1nnc(SCc2ccc(F)cc2)n1Cc1ccccc1 [2-(4-benzyl-5-(4-fluorobenzylthio)-4H-1,2,4-triazol-3-yl)phenol]
CDK2-cyclinA and PRAK	COc1ccccc1-n1c(SCc2ccccc2Cl)nnc1-c1ccccc1O [2-(5-(2-chlorobenzylthio)-4-(2-methoxyphenyl)-4H-1,2,4-triazol-3-yl)phenol]
ROCK2	COc1ccccc1-n1c(SCCO)nnc1-c1cccc(Cl)c1 [2-(5-(3-chlorophenyl)-4-(2-methoxyphenyl)-4H-1,2,4-triazol-3-ylthio)ethanol]

SMILES	protein kinase against which the compound exhibits inhibitory activity (Table 3)
OCCSc1nnc(-c2ccc(Cl)c(Cl)c2)[nH]1 [2-(5-(3,4-dichlorophenyl)-4H-1,2,4-triazol-3-ylthio)ethanol]	AURORA-A; also recorded: FLT-3; also recorded: CHEK2
